Assay results published in paper PMC5640644, “HDX reveals the conformational dynamics of DNA sequence specific VDR co-activator interactions” (Nature Communications, 2017).

Molecular target: T1, RXRα (Homo sapiens, UniProt P19793)
T1 construct: Flag; made in house; host or cells: baculovirus system
T1 sequence (P19793 1-462): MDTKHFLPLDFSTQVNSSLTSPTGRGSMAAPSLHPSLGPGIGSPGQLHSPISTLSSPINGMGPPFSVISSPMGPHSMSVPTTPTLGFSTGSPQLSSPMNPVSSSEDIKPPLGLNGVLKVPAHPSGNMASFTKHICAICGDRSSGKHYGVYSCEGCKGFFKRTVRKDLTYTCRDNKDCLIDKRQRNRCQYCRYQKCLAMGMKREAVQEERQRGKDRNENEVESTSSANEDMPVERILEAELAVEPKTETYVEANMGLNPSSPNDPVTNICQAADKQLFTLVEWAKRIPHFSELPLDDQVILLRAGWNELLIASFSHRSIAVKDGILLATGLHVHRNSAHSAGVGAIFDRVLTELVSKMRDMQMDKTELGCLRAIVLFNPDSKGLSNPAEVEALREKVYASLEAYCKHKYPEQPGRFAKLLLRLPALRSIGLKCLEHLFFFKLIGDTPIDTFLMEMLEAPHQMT
Experiment: Differential HDX-MS of RXRα alone with and without ligand
Assay type: binding
Details: without VDR
Experimental: Full-length WT His-hVDR (Δ (151–190)) and WT Flag-h RXRα were expressed in a baculovirus system and purified by Ni-NTASEC or Flag-SEC, respectively. His-hSRC1 RID (627–786) variant 1 (NM_003743) was expressed in Escherichia coli (BL21 DE3) and purified using His-Trap (GE Healthcare). The final protein buffer was 50 mM Tris (pH 8.0), 150 mM NaCl, 10% glycerol and 2 mM DTT. The purity of each protein was > 95% and was verified using SDS-PAGE, western blot and MALDI MS.
HDX-MS analysis: 10 μM of the apo protein was mixed with 1:10 molar excess of ligand and incubated for 2 h at 4 °C for complex formation before subjecting them to HDX analysis. […] The intensity weighted mean m/z centroid value of each peptide envelope was calculated and subsequently converted into a percentage of deuterium incorporation. […] In the absence of a fully deuterated control, 100% deuterium incorporation was calculated theoretically, and corrections for back-exchange were made on the basis of an estimated 70% deuterium recovery and accounting for 79.9% final deuterium concentration in the sample (1:5 dilution in D2O HDX buffer). Statistical significance for the differential HDX data is determined by an unpaired t-test for each time point, a procedure that is integrated into the HDX Workbench software. […]

In the case of `CCC(CC)(c1ccc(OCC(O)C(C)(C)C)c(C)c1)c1ccc(C(=O)N(C)CC(=O)O)c(C)c1` (stereo not shown) [Cmpd1, [(4-{1-ethyl-1-[4-(2-hydroxy-3,3-dimethyl-butoxy)-3-methyl-phenyl]-propyl}-2-methyl-benzoyl)-methyl-amino]-acetic acid], the “conformational changes of RXRα upon ligand binding (HDX)” value is reported as “no detectable conformational changes”.
